Data on 16 molecules can be found in patent US20240360178A1, “MACROCYCLIC IMMUNOMODULATORS” (Bristol-Myers Squibb Company, priority 2021, published 2024).

Where two headings read alike, the source gives them in different places. Positions of bridges follow the written chain, without caps; N, C: chain ends. Non-standard residues stand in square brackets, D forms with d. Residues, ends and D or L forms follow the SMILES beside them. Phe(4-COOH) = N[C@@H](Cc1ccc(C(=O)O)cc1)C(=O)O; Bip = N[C@@H](Cc1ccc(-c2ccccc2)cc1)C(=O)O; NMeR = CN[C@@H](CCCNC(=N)N)C(=O)O; Ala(cPr) = N[C@@H](CC1CC1)C(=O)O; NMeF = CN[C@@H](Cc1ccccc1)C(=O)O; 4Pal = N[C@@H](Cc1ccncc1)C(=O)O; NMeA = CN[C@@H](C)C(=O)O; Orn = NCCC[C@H](N)C(=O)O; Dab = NCC[C@H](N)C(=O)O; Abu = CC[C@H](N)C(=O)O; Dap = NC[C@H](N)C(=O)O; Sar = CNCC(=O)O

The assay has as its target T1, human PD-1 (Jurkat-PD-1 cells) / PE-labeled human PD-L1-Ig (Homo sapiens, UniProt Q15116).
T1 construct: expressed in transfected cells; host or cells: Jurkat cell line over-expressing human PD-1
In words: Jurkat-PD-1 Cell Binding High-Content Screening Assay (CBA); Jurkat hPD1-PDL1 assay. As to conditions: PE-labeled PD-L1-Ig 20 nM final, compound incubated 2 hours at 37° C. Put shortly:
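Jurkat cells overexpressing human PD-1 (8×10^3 per well, DMEM with 10% FCS) were preincubated with compound for 2 hours at 37° C. PE-labeled human PD-L1-Ig was then added at 20 nM final. Binding was quantified by high-content imaging.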

Where [1] appears, read: Jurkat cell line over-expressing human PD-1, read-out: Jurkat HPD1-PDL1 IC50.

T1 sequence (Q15116 25-288): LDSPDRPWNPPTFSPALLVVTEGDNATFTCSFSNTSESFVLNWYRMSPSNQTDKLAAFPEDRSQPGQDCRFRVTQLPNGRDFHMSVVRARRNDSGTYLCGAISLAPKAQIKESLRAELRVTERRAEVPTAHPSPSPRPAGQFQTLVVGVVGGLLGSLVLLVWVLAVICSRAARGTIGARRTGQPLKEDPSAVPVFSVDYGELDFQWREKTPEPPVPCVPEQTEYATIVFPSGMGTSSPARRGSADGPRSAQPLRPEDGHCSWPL

By IC50 is commonly meant the concentration that inhibits the measured activity by half. For the molecule `CC(C)C[C@@H]1NC(=O)[C@H](Cc2c[nH]c3ccccc23)NC(=O)[C@H](CC(=O)O)NC(=O)[C@H](Cc2ccc(O)cc2)NC(=O)[C@H](Cc2ccccc2)NC(=O)CSC[C@@H](C(=O)N[C@@H](C)C(N)=O)NC(=O)[C@H](CO)NC(=O)[C@H](C(C)C)NC(=O)[C@H](CC(C)C)NC(=O)[C@H](CCC(N)=O)NC(=O)[C@H]2CCCN2C(=O)[C@H](C)N(C)C(=O)[C@H](C(C)C)NC(=O)[C@H](Cc2ccc(-c3ccccc3)cc2)NC1=O` [Example 1037] ({CH2CO}-FYDWL[Bip]V[NMeA][dP]QLVSCA-NH2; thioether N-14), the IC50 under setting [1] came to 70 nM.
Take `CC(C)C[C@@H]1NC(=O)CSC[C@@H](C(=O)NCC(N)=O)NC(=O)[C@H](CO)NC(=O)[C@H](C(C)C)NC(=O)[C@H](CC(C)C)NC(=O)[C@H](CCCNC(=N)N)NC(=O)[C@H](Cc2ccccc2)N(C)C(=O)[C@H](C)N(C)C(=O)[C@H](CCCNC(=N)N)NC(=O)[C@H](Cc2ccc(-c3ccccc3)cc2)NC(=O)[C@H](C(C)C)NC(=O)[C@H](Cc2c[nH]c3ccccc23)NC(=O)[C@H](CC(=O)O)NC(=O)[C@H](Cc2ccc(C(=O)O)cc2)NC1=O` [Example 1295] ({CH2CO}-L[Phe(4-COOH)]DWV[Bip]R[NMeA][NMeF]RLVSCG-NH2; thioether N-14): under setting [1], the IC50 stood at 210 nM.
On the same count and under the same terms, the value for `CC(C)C[C@@H]1NC(=O)[C@H](Cc2c[nH]c3ccccc23)NC(=O)[C@H](CC(=O)O)NC(=O)[C@H](Cc2ccc(O)cc2)NC(=O)[C@H](CC(N)=O)NC(=O)CSC[C@@H](C(=O)N[C@@H](C)C(N)=O)NC(=O)[C@H](CO)NC(=O)[C@H](C(C)C)NC(=O)[C@H](CC(C)C)NC(=O)[C@H](CC(N)=O)NC(=O)[C@H]2CCCN2C(=O)[C@H](CCCN)NC(=O)[C@H](C(C)C)NC(=O)[C@H](Cc2ccc(-c3ccccc3)cc2)NC1=O` [Example 1425] ({CH2CO}-NYDWL[Bip]V[Orn][dP]NLVSCA-NH2; thioether N-14) was 190 nM; that for `CC(C)C[C@@H]1NC(=O)[C@H](Cc2c[nH]c3ccccc23)NC(=O)[C@H](CC(=O)O)NC(=O)[C@H](Cc2ccc(O)cc2)NC(=O)[C@H](Cc2ccccc2)NC(=O)CSC[C@@H](C(=O)NCC(N)=O)NC(=O)[C@H](CC(N)=O)NC(=O)[C@H](C(C)C)NC(=O)[C@H](CC(C)C)NC(=O)[C@H](CC(N)=O)NC(=O)CN(C)C(=O)[C@H](C)N(C)C(=O)[C@H](C(C)C)NC(=O)[C@H](Cc2ccc(-c3ccccc3)cc2)NC1=O` [Example 1228] ({CH2CO}-FYDWL[Bip]V[NMeA][Sar]NLVNCG-NH2; thioether N-14) was 720 nM.
As to `CC(C)C[C@@H]1NC(=O)CSC[C@@H](C(=O)NCC(N)=O)NC(=O)[C@H](CO)NC(=O)[C@H](C(C)C)NC(=O)[C@H](CC(C)C)NC(=O)[C@H](CC(N)=O)NC(=O)CN(C)C(=O)[C@H](C)N(C)C(=O)[C@H](C(C)C)NC(=O)[C@H](Cc2ccc(-c3ccccc3)cc2)NC(=O)[C@H](CC(C)C)NC(=O)[C@H](Cc2c[nH]c3ccccc23)NC(=O)[C@H](CC(=O)O)NC(=O)[C@H](Cc2ccc(O)cc2)NC1=O` [Example 1141] ({CH2CO}-LYDWL[Bip]V[NMeA][Sar]NLVSCG-NH2; thioether N-14), under setting [1], the IC50 turned out to be 610 nM.
The same measure, in the same setting: with `CC(C)C[C@@H]1NC(=O)[C@H](Cc2c[nH]c3ccccc23)NC(=O)[C@H](CC(=O)O)NC(=O)[C@H](Cc2ccc(O)cc2)NC(=O)[C@H](Cc2ccccc2)NC(=O)CSC[C@@H](C(=O)NCC(N)=O)NC(=O)[C@H](CO)NC(=O)[C@H](C(C)C)NC(=O)[C@H](CC(C)C)NC(=O)[C@H](CCCNC(=N)N)NC(=O)CN(C)C(=O)[C@H](C)N(C)C(=O)[C@H](CC(=O)O)NC(=O)[C@H](Cc2ccc(-c3ccccc3)cc2)NC1=O` [Example 1237] ({CH2CO}-FYDWL[Bip]D[NMeA][Sar]RLVSCG-NH2; thioether N-14) the figure was 520 nM.
Under “Jurkat HPD1-PDL1 IC50, Jurkat cell line over-expressing human PD-1”, `CC(C)C[C@@H]1NC(=O)[C@H](Cc2c[nH]c3ccccc23)NC(=O)[C@H](CC(=O)O)NC(=O)[C@H](Cc2ccc(O)cc2)NC(=O)[C@H](Cc2ccccc2)NC(=O)CSC[C@@H](C(=O)NCC(N)=O)NC(=O)[C@H](CO)NC(=O)[C@H](C(C)C)NC(=O)[C@H](CC(C)C)NC(=O)[C@H](CC(N)=O)NC(=O)[C@H]2CCCN2C(=O)[C@H](CN)NC(=O)[C@H](C(C)C)NC(=O)[C@H](Cc2ccc(-c3ccccc3)cc2)NC1=O` [Example 1406] ({CH2CO}-FYDWL[Bip]V[Dap][dP]NLVSCG-NH2; thioether N-14) came in with an IC50 of 350 nM.
Consider `CC(C)C[C@@H]1NC(=O)[C@H](CC(N)=O)NC(=O)CN(C)C(=O)[C@H](C)N(C)C(=O)[C@H](C(C)C)NC(=O)[C@H](Cc2ccc(-c3ccccc3)cc2)NC(=O)[C@H](CC2CC2)NC(=O)[C@H](Cc2c[nH]c3ccccc23)NC(=O)[C@H](CC(=O)O)NC(=O)[C@H](Cc2ccc(O)cc2)NC(=O)[C@H](Cc2ccccc2)NC(=O)CSC[C@@H](C(=O)N[C@@H](C)C(N)=O)NC(=O)[C@H](CO)NC(=O)[C@H](C(C)C)NC1=O` [Example 1155] ({CH2CO}-FYDW[Ala(cPr)][Bip]V[NMeA][Sar]NLVSCA-NH2; thioether N-14), for which the IC50 under setting [1] came to 810 nM.
`COc1ccc(C[C@@H]2NC(=O)CSC[C@@H](C(=O)NCC(N)=O)NC(=O)[C@H](CO)NC(=O)[C@H](C(C)C)NC(=O)[C@H](CC(C)C)NC(=O)[C@H](CCCNC(=N)N)NC(=O)[C@H](Cc3ccccc3)N(C)C(=O)[C@H](C)N(C)C(=O)[C@H](CCCNC(=N)N)NC(=O)[C@H](Cc3ccc(-c4ccccc4)cc3)NC(=O)[C@H](C(C)C)NC(=O)[C@H](Cc3c[nH]c4ccccc34)NC(=O)[C@H](CC(=O)O)NC(=O)[C@H](Cc3ccc(O)cc3)NC2=O)cc1` [Example 1247] ({CH2CO}-Y(Me)YDWV[Bip]R[NMeA][NMeF]RLVSCG-NH2; thioether N-14): the IC50 under setting [1] was determined as 230 nM.
Consider `CC(C)C[C@@H]1NC(=O)[C@H](Cc2c[nH]c3ccccc23)NC(=O)[C@H](CC(=O)O)NC(=O)[C@H](Cc2ccc(O)cc2)NC(=O)[C@H](Cc2ccccc2)NC(=O)CSC[C@@H](C(=O)NCC(N)=O)NC(=O)[C@H](C)NC(=O)[C@H](C(C)C)NC(=O)[C@H](CC(C)C)NC(=O)[C@H](CC(N)=O)NC(=O)CN(C)C(=O)[C@H](C)N(C)C(=O)[C@H](C(C)C)NC(=O)[C@H](Cc2ccc(-c3ccccc3)cc2)NC1=O` [Example 1110] ({CH2CO}-FYDWL[Bip]V[NMeA][Sar]NLVACG-NH2; thioether N-14), for which the IC50 under setting [1] amounted to 350 nM.
Still for that read-out and setting: with `CC(C)C[C@@H]1NC(=O)[C@H](Cc2c[nH]c3ccccc23)NC(=O)[C@H](CC(=O)O)NC(=O)[C@H](Cc2ccc(O)cc2)NC(=O)[C@H](Cc2ccccc2)NC(=O)CSC[C@@H](C(=O)NCC(N)=O)NC(=O)[C@H](CO)NC(=O)[C@H](C(C)C)NC(=O)[C@H](CC(C)C)NC(=O)[C@H](CCCNC(=N)N)NC(=O)CN(C)C(=O)[C@H](C)N(C)C(=O)[C@H](C(C)C)NC(=O)[C@H](Cc2ccc(-c3ccccc3)cc2)NC1=O` [Example 1204] ({CH2CO}-FYDWL[Bip]V[NMeA][Sar]RLVSCG-NH2; thioether N-14) the figure was 400 nM.
Turning to `CC(C)C[C@@H]1NC(=O)[C@H](Cc2c[nH]c3ccccc23)NC(=O)[C@H](CC(=O)O)NC(=O)[C@H](Cc2ccc(O)cc2)NC(=O)[C@H](Cc2ccncc2)NC(=O)CSC[C@@H](C(=O)NCC(N)=O)NC(=O)[C@H](CO)NC(=O)[C@H](C(C)C)NC(=O)[C@H](CC(C)C)NC(=O)[C@H](CC(N)=O)NC(=O)CN(C)C(=O)[C@H](C)N(C)C(=O)[C@H](C(C)C)NC(=O)[C@H](Cc2ccc(-c3ccccc3)cc2)NC1=O` [Example 1107] ({CH2CO}-[4Pal]YDWL[Bip]V[NMeA][Sar]NLVSCG-NH2; thioether N-14), the IC50 under setting [1] worked out at 340 nM.
On to `CC(C)C[C@@H]1NC(=O)[C@H](Cc2c[nH]c3ccccc23)NC(=O)[C@H](CC(=O)O)NC(=O)[C@H](Cc2ccc(C(=O)O)cc2)NC(=O)[C@H](CC(N)=O)NC(=O)CSC[C@@H](C(=O)N[C@@H](C)C(N)=O)NC(=O)[C@H](CO)NC(=O)[C@H](C(C)C)NC(=O)[C@H](CC(C)C)NC(=O)[C@H](CC(N)=O)NC(=O)[C@H]2CCCN2C(=O)[C@H](C)N(C)C(=O)[C@H](C(C)C)NC(=O)[C@H](Cc2ccc(-c3ccccc3)cc2)NC1=O` [Example 1059] ({CH2CO}-N[Phe(4-COOH)]DWL[Bip]V[NMeA][dP]NLVSCA-NH2; thioether N-14), for which the IC50 under setting [1] worked out at 140 nM.
`CC(C)C[C@@H]1NC(=O)[C@H](Cc2c[nH]c3ccccc23)NC(=O)[C@H](CC(=O)O)NC(=O)[C@H](Cc2ccc(O)cc2)NC(=O)[C@H](Cc2ccccc2)NC(=O)CSC[C@@H](C(=O)NCC(N)=O)NC(=O)[C@H]([C@@H](C)O)NC(=O)[C@H](C(C)C)NC(=O)[C@H](CC(C)C)NC(=O)[C@H](CCN)NC(=O)[C@H]2CCCN2C(=O)[C@H](CCN)NC(=O)[C@H](C(C)C)NC(=O)[C@H](Cc2ccc(-c3ccccc3)cc2)NC1=O` [Example 1414] ({CH2CO}-FYDWL[Bip]V[Dab][dP][Dab]LVTCG-NH2; thioether N-14): the IC50 under setting [1] was 320 nM.
Consider `CC(C)C[C@@H]1NC(=O)[C@H](Cc2c[nH]c3ccccc23)NC(=O)[C@H](CC(=O)O)NC(=O)[C@H](Cc2ccc(O)cc2)NC(=O)[C@H](Cc2ccccc2)NC(=O)CSC[C@@H](C(=O)N[C@@H](C)C(N)=O)NC(=O)[C@H](CO)NC(=O)[C@H](C(C)C)NC(=O)[C@H](CC(C)C)NC(=O)[C@H](CCC(=O)O)NC(=O)[C@H]2CCCN2C(=O)[C@H](C)N(C)C(=O)[C@H](CCC(=O)O)NC(=O)[C@H](Cc2ccc(-c3ccccc3)cc2)NC1=O` [Example 1177] ({CH2CO}-FYDWL[Bip]E[NMeA][dP]ELVSCA-NH2; thioether N-14), for which, under setting [1], the IC50 worked out at 240 nM.
On the same count and under the same terms, with `CC[C@@H]1NC(=O)[C@H](Cc2ccc(-c3ccccc3)cc2)NC(=O)[C@H](CC(C)C)NC(=O)[C@H](Cc2c[nH]c3ccccc23)NC(=O)[C@H](CC(=O)O)NC(=O)[C@H](Cc2ccc(O)cc2)NC(=O)[C@H](Cc2ccccc2)NC(=O)CSC[C@@H](C(=O)NCC(N)=O)NC(=O)[C@H](CO)NC(=O)[C@H](C(C)C)NC(=O)[C@H](CC(C)C)NC(=O)[C@H](CCCNC(=N)N)NC(=O)CN(C)C(=O)[C@H](CCCNC(=N)N)N(C)C1=O` [Example 1234] ({CH2CO}-FYDWL[Bip][Abu][NMeR][Sar]RLVSCG-NH2; thioether N-14) the figure was 290 nM.
